Assay results: patent publication US12479895B2, “C-terminal CDNF and MANF fragments, pharmaceutical compositions comprising same and uses thereof” (MyNeuroCure Oy, priority 2018, dated 2025)

Assays:
ER stressed SCG neurons = assay: Survival of tunicamycin-treated (ER stressed) SCG sympathetic neurons after microinjection; format: cell-based, mice; conditions: tunicamycin 2 μM; for survived neurons as % compared to neurons grown in the presence of NGF: Table 1B (FIG. 16), microinjected into cytoplasm, counted after 3 days, CDNF (400)
Outline: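 Newborn mouse SCG neurons grown 5-6 days with 30 ng/ml NGF, then microinjected with CDNF (FL or C-terminal) plasmids (10 ng/ul, EGFP reporter) or proteins (200 ng/ul, Dextran Texas Red). Tunicamycin (2 μM) added next day. Fluorescent survivors counted blindly after 3 days as % of initial; compared with vector or PBS (ANOVA/Dunnett).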

dopamine neurons = assay: Survival of TH-positive dopamine neurons in dissociated midbrain floor cultures; format: cell-based, mouse; conditions: 5 days; for survived neurons as % compared to neurons grown in the presence of GDNF: Table 3B (FIG. 17), AVG
Outline: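 Dissociated E13.5 NMRI mouse midbrain floor neurons grown five days in DMEM/F12 with N2, with polypeptides at a range of concentrations, GDNF (100 ng/ml), or nothing. TH-immunopositive neurons were counted by imaging. Values are a percentage of GDNF-maintained TH-positive neurons, as mean ± SEM from at least three independent cultures.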

Sequence: TLDLASVDLRKMRVAELKQILHSWGEECRACAEKTDYVNLIQEPAPKYA (Mutated C-CDNF peptide) [pep13]
- survived neurons as % compared to neurons grown in the presence of NGF (ER stressed SCG neurons; exp1): 77.41 % NGF
- survived neurons as % compared to neurons grown in the presence of NGF (ER stressed SCG neurons; exp2): 72.46 % NGF
- survived neurons as % compared to neurons grown in the presence of NGF (ER stressed SCG neurons; exp3): 80.39 % NGF
- rescue of ER stressed SCG neurons (result in words) (ER stressed SCG neurons; protein or peptide microinjected into the cytoplasm, living fluorescent neurons counted after 3 days): rescue
- survived neurons as % compared to neurons grown in the presence of GDNF (dopamine neurons; 1 ng/ml): 71.07 % GDNF
- survived neurons as % compared to neurons grown in the presence of GDNF (dopamine neurons; 10 ng/ml): 86.81 % GDNF
- survived neurons as % compared to neurons grown in the presence of GDNF (dopamine neurons; 100 ng/ml): 88.07 % GDNF
- survived neurons as % compared to neurons grown in the presence of GDNF (dopamine neurons; 1000 ng/ml): 85.36 % GDNF
- protection of dopaminergic neurons in culture (result in words) (dopamine neurons; added to the culture medium, TH-positive neurons counted): best protective effect

Sequence: TLDLASVDLRKMRVAELKQILHSWGEECRARACAEKTDYVNLIQELAPKYA (Mutated C-CDNF peptide) [pep11]
- survived neurons as % compared to neurons grown in the presence of NGF (ER stressed SCG neurons; exp1): 46.25 % NGF
- survived neurons as % compared to neurons grown in the presence of NGF (ER stressed SCG neurons; exp2): 48.61 % NGF
- survived neurons as % compared to neurons grown in the presence of NGF (ER stressed SCG neurons; exp3): 44.64 % NGF
- survived neurons as % compared to neurons grown in the presence of GDNF (dopamine neurons; 1 ng/ml): 59.60 % GDNF
- survived neurons as % compared to neurons grown in the presence of GDNF (dopamine neurons; 10 ng/ml): 60.76 % GDNF
- survived neurons as % compared to neurons grown in the presence of GDNF (dopamine neurons; 100 ng/ml): 69.28 % GDNF
- survived neurons as % compared to neurons grown in the presence of GDNF (dopamine neurons; 1000 ng/ml): 70.22 % GDNF

Sequence: TLDLASVDLRKMRVAELKQILHSWGEECRASAEKTDYVNLIQELAPKYA (C-CDNF peptide with single amino acid substitution) [pep10]
- survived neurons as % compared to neurons grown in the presence of NGF (ER stressed SCG neurons; exp1): 42.46 % NGF
- survived neurons as % compared to neurons grown in the presence of NGF (ER stressed SCG neurons; exp2): 45.16 % NGF
- survived neurons as % compared to neurons grown in the presence of NGF (ER stressed SCG neurons; exp3): 40.35 % NGF
- survived neurons as % compared to neurons grown in the presence of GDNF (dopamine neurons; 1 ng/ml): 54.25 % GDNF
- survived neurons as % compared to neurons grown in the presence of GDNF (dopamine neurons; 10 ng/ml): 63.09 % GDNF
- survived neurons as % compared to neurons grown in the presence of GDNF (dopamine neurons; 100 ng/ml): 68.97 % GDNF
- survived neurons as % compared to neurons grown in the presence of GDNF (dopamine neurons; 1000 ng/ml): 69.16 % GDNF
